Assay in all cases: relative viability (nuclei count vs DMSO), 5 days (fraction); higher = more cells survive
Compound in the experiment “Decitabine + Navitoclax”: Nc1ncn([C@H]2C[C@H](O)[C@@H](CO)O2)c(=O)n1 [Decitabine] + CC1(C)CCC(c2ccc(Cl)cc2)=C(CN2CCN(c3ccc(C(=O)NS(=O)(=O)c4ccc(N[C@H](CCN5CCOCC5)CSc5ccccc5)c(S(=O)(=O)C(F)(F)F)c4)cc3)CC2)C1 [Navitoclax] (partner 0.5 µM)
A digest of the protocol:
(§1)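 Dosing by pin tool came one day after lung cancer cell lines were seeded in 1536-well plates, using either one drug or a fixed anchor-drug dose plus five library-drug doses (not always all listed) in √10 steps. After 5 days, nuclei were counted on 4× images. Relative viability is treated-well nuclei count divided by vehicle-well nuclei count, and values are medians of duplicate plates.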

Compound in the experiment “Decitabine + OSI-027”: Nc1ncn([C@H]2C[C@H](O)[C@@H](CO)O2)c(=O)n1 [Decitabine] + COc1cccc2cc(-c3nc([C@H]4CC[C@H](C(=O)O)CC4)n4ncnc(N)c34)[nH]c12 [OSI-027] (partner 0.5 µM)
A digest of the protocol:
as §1

Compound in the experiment “Decitabine + Pictilisib”: Nc1ncn([C@H]2C[C@H](O)[C@@H](CO)O2)c(=O)n1 [Decitabine] + CS(=O)(=O)N1CCN(Cc2cc3nc(-c4cccc5[nH]ncc45)nc(N4CCOCC4)c3s2)CC1 [Pictilisib] (partner 1 µM)
The gist of the method:
as §1

For COR-L23, the relative viability with Decitabine + Navitoclax (first compound 0.04 µM) stood at 0.577; in the experiment with Decitabine + Navitoclax (first compound 0.1265 µM), 0.478; with Decitabine + Navitoclax (first compound 0.4 µM), 0.382; with Decitabine + Navitoclax (first compound 1.265 µM) it was 0.294; with Decitabine + Navitoclax (first compound 4 µM), 0.207; with Decitabine + OSI-027 (first compound 0.04 µM), 0.415. The relative viability with Decitabine + OSI-027 (first compound 0.1265 µM) worked out at 0.401; with Decitabine + OSI-027 (first compound 0.4 µM), 0.335; with Decitabine + OSI-027 (first compound 1.265 µM), 0.227; in the experiment with Decitabine + OSI-027 (first compound 4 µM) it was 0.158; with Decitabine + Pictilisib (first compound 0.04 µM), 0.527; with Decitabine + Pictilisib (first compound 0.1265 µM) it was 0.619. Moreover, the results for the relative viability with Decitabine + Pictilisib (first compound 0.4 µM), in the experiment with Decitabine + Pictilisib (first compound 1.265 µM) and with Decitabine + Pictilisib (first compound 4 µM) were 0.239, 0.178 and 0.172, respectively.
For COR-L 105, the relative viability with Decitabine + Navitoclax (first compound 0.04 µM) came to 0.539; with Decitabine + Navitoclax (first compound 0.1265 µM), 0.534; with Decitabine + Navitoclax (first compound 0.4 µM), 0.437; in the experiment with Decitabine + Navitoclax (first compound 1.265 µM), 0.318; with Decitabine + Navitoclax (first compound 4 µM), 0.316; with Decitabine + OSI-027 (first compound 0.04 µM) it was 0.425. In addition, the relative viability with Decitabine + OSI-027 (first compound 0.1265 µM) came to 0.581; in the experiment with Decitabine + OSI-027 (first compound 0.4 µM), 0.65; with Decitabine + OSI-027 (first compound 1.265 µM), 0.526; with Decitabine + OSI-027 (first compound 4 µM), 0.585; with Decitabine + Pictilisib (first compound 0.04 µM) it was 0.327; in the experiment with Decitabine + Pictilisib (first compound 0.1265 µM), 0.442. The relative viability with Decitabine + Pictilisib (first compound 0.4 µM) was determined as 0.405; in the experiment with Decitabine + Pictilisib (first compound 1.265 µM), 0.341; with Decitabine + Pictilisib (first compound 4 µM) it was 0.292.
Turning to Calu-6, the relative viability with Decitabine + Navitoclax (first compound 0.04 µM) came out at 0.6; with Decitabine + Navitoclax (first compound 0.1265 µM) it was 0.457; with Decitabine + Navitoclax (first compound 0.4 µM), 0.302; with Decitabine + Navitoclax (first compound 1.265 µM), 0.277; with Decitabine + Navitoclax (first compound 4 µM) it was 0.207; with Decitabine + Pictilisib (first compound 0.04 µM), 0.76. The relative viability with Decitabine + Pictilisib (first compound 0.1265 µM) was 0.685; in the experiment with Decitabine + Pictilisib (first compound 0.4 µM) it was 0.468; with Decitabine + Pictilisib (first compound 1.265 µM) it was 0.334; in the experiment with Decitabine + Pictilisib (first compound 4 µM), 0.243.
For the cell line ChaGo-K-1, the relative viability with Decitabine + Navitoclax (first compound 0.04 µM) came to 0.681; with Decitabine + Navitoclax (first compound 0.1265 µM), 0.762; in the experiment with Decitabine + Navitoclax (first compound 0.4 µM), 0.479; with Decitabine + Navitoclax (first compound 1.265 µM), 0.611; with Decitabine + Navitoclax (first compound 4 µM), 0.565; with Decitabine + OSI-027 (first compound 0.04 µM) it was 0.493. Further, the relative viability in the experiment with Decitabine + OSI-027 (first compound 0.1265 µM) came out at 0.483; with Decitabine + OSI-027 (first compound 0.4 µM), 0.299; with Decitabine + OSI-027 (first compound 1.265 µM), 0.32; with Decitabine + OSI-027 (first compound 4 µM) it was 0.41; in the experiment with Decitabine + Pictilisib (first compound 0.04 µM), 0.552; with Decitabine + Pictilisib (first compound 0.1265 µM), 0.705. In addition, the relative viability in the experiment with Decitabine + Pictilisib (first compound 0.4 µM) was 0.446; with Decitabine + Pictilisib (first compound 1.265 µM) it was 0.509; with Decitabine + Pictilisib (first compound 4 µM), 0.492.
Regarding EBC-1, the relative viability was found to be 0.21 in the experiment with Decitabine + Navitoclax (first compound 0.04 µM); 0.257 with Decitabine + Navitoclax (first compound 0.1265 µM); 0.2 in the experiment with Decitabine + Navitoclax (first compound 0.4 µM); 0.178 in the experiment with Decitabine + Navitoclax (first compound 1.265 µM); 0.15 with Decitabine + Navitoclax (first compound 4 µM); 0.277 in the experiment with Decitabine + Pictilisib (first compound 0.04 µM). The relative viability was 0.295 with Decitabine + Pictilisib (first compound 0.1265 µM), 0.252 with Decitabine + Pictilisib (first compound 0.4 µM), 0.214 with Decitabine + Pictilisib (first compound 1.265 µM) and 0.169 in the experiment with Decitabine + Pictilisib (first compound 4 µM).
Consider EKVX, for which the relative viability with Decitabine + Navitoclax (first compound 0.04 µM) amounted to 0.75; with Decitabine + Navitoclax (first compound 0.1265 µM), 0.809; with Decitabine + Navitoclax (first compound 0.4 µM), 0.561; with Decitabine + Navitoclax (first compound 1.265 µM), 0.365; with Decitabine + Navitoclax (first compound 4 µM), 0.347; with Decitabine + OSI-027 (first compound 0.04 µM) it was 0.494. The relative viability was found to be 0.516 with Decitabine + OSI-027 (first compound 0.1265 µM); 0.461 in the experiment with Decitabine + OSI-027 (first compound 0.4 µM); 0.303 with Decitabine + OSI-027 (first compound 1.265 µM); 0.297 with Decitabine + OSI-027 (first compound 4 µM); 0.37 in the experiment with Decitabine + Pictilisib (first compound 0.04 µM); 0.387 with Decitabine + Pictilisib (first compound 0.1265 µM). The figures for the relative viability in the experiment with Decitabine + Pictilisib (first compound 0.4 µM), in the experiment with Decitabine + Pictilisib (first compound 1.265 µM) and with Decitabine + Pictilisib (first compound 4 µM) were 0.391, 0.252 and 0.241, respectively.

Values taken from the supplement of paper PMC10307832.
